The target in the experiment is hQC (Homo sapiens (Human), UniProt Q16769). The experiment in a line: QC inhibitor assay (hQC inhibition, IC50 and Ki determination). It counts as biochemical. To be noted: for pKi: competitive inhibition fit. The method, then: All measurements were performed with a BioAssay Reader HTS-7000Plus for microplates (Perkin Elmer) at 30° C. QC activity was evaluated fluorometrically using H-Gln-βNA. The samples consisted of 0.2 mM fluorogenic substrate, 0.25 U pyroglutamyl aminopeptidase (Unizyme, Hørsholm, Denmark) in 0.2 M Tris/HCl, pH 8.0 containing 20 mM EDTA and an appropriately diluted aliquot of QC in a final volume of 250 μl. Excitation/emission wavelengths were 320/410 nm. The assay reactions were initiated by addition of glutaminyl cyclase. QC activity was determined from a standard curve of β-naphthylamine under assay conditions. One unit is defined as the amount of QC catalyzing the formation of 1 μmol pGlu-βNA from H-Gln-βNA per minute under the described conditions.
In a second fluorometric assay, QC was activity determined using H-Gln-AMC as substrate. Reactions were carried out at 30° C. utilizing the NOVOStar reader for microplates (BMG labtechnologies). The samples consisted of varying concentrations of the fluorogenic substrate, 0.1 U pyroglutamyl aminopeptidase (Qiagen) in 0.05 M Tris/HCl, pH 8.0 containing 5 mM EDTA and an appropriately diluted aliquot of QC in a final volume of 250 μl. Excitation/emission wavelengths were 380/460 nm. The assay reactions were initiated by addition of glutaminyl cyclase. QC activity was determined from a standard curve of 7-amino-4-methylcoumarin under assay conditions. The kinetic data were evaluated using GraFit software.
This novel assay was used to determine the kinetic parameters for most of the QC substrates. […] Samples consisted of the respective QC substrate, 0.3 mM NADH, 14 mM α-Ketoglutaric acid and 30 U/ml glutamate dehydrogenase in a final volume of 250 μl. Reactions were started by addition of QC and perused by monitoring of the decrease in absorbance at 340 nm for 8-15 min.
The initial velocities were evaluated and the enzymatic activity was determined from a standard curve of ammonia under assay conditions. All samples were measured at 30° C., using either the […]luor Plus or the Sunrise (both from TECAN) reader for microplates. Kinetic data was evaluated using GraFit software.
For inhibitor testing, the sample composition was the same as described above, except of the putative inhibitory compound added. For a rapid test of QC-inhibition, samples contained 4 mM of the respective inhibitor and a substrate concentration at 1 KM. For detailed investigations of the inhibition and determination of Ki-values, influence of the inhibitor on the auxiliary enzymes was investigated first. […] The inhibitory constant was evaluated by fitting the set of progress curves to the general equation for competitive inhibition using GraFit software.

pIC50, pKi: −log10 of the molar value.

Chain of hQC (Q16769 29-361): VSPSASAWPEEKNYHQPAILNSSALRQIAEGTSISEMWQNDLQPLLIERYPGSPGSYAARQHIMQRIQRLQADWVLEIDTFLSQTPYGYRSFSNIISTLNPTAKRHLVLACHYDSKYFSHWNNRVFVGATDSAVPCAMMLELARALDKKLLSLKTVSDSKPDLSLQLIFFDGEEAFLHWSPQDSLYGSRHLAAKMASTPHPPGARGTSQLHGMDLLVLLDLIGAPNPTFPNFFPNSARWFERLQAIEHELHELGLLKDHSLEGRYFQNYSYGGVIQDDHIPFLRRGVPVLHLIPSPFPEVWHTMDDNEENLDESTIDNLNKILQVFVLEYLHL

For the compound `COc1cc(CCc2nnc(-c3ccc4[nH]cnc4c3)s2)cc(OC)c1OC` [Example 55, 5-(5-(3,4,5-Trimethoxyphenethyl)-1,3,4-thiadiazol-2-yl)-1H-benzo[d]imidazole], the pIC50 – broadly, −log10 of the IC50, conventionally taken in molar units – is 6.31 and the pKi (in general, the negative decadic logarithm of the Ki, by convention in mol/L) is 7.10.

Regarding `c1ccc(SCn2cc(-c3ccc4[nH]cnc4c3)nn2)cc1` [Example 84, 5-(1-((Phenylthio)methyl)-1H-1,2,3-triazol-4-yl)-1H-benzo[d]imidazole], the pIC50 was 6.24 and the negative logarithm of the Ki (pKi) is 6.92.

`COc1ccc(CCc2nnc(-c3ccc4[nH]cnc4c3)o2)cc1Cl` [Example 39, 5-(5-(3-Chloro-4-methoxyphenethyl)-1,3,4-oxadiazol-2-yl)-1H-benzo[d]imidazole] showed a pIC50 of 6.10 and a pKi of 6.89.

As to `COc1cccc(CCc2nnc(-c3ccc4[nH]cnc4c3)s2)c1Cl` [Example 63, 5-(5-(2-Chloro-3-methoxyphenethyl)-1,3,4-thiadiazol-2-yl)-1H-benzo[d]imidazole], the pIC50 was 6.66 and the pKi was 7.00.

For `Clc1cccc(Cn2cnnc2-c2ccc3[nH]cnc3c2)c1Cl` [Example 22, 5-(4-(2,3-Dichlorobenzyl)-4H-1,2,4-triazol-3-yl)-1H-benzo[d]imidazole], the pIC50 is 6.28 and the pKi is 6.92.

`COc1ccc(Cn2cnnc2-c2ccc3[nH]cnc3c2)cc1Cl` [Example 24, 5-(4-(3-Chloro-4-methoxybenzyl)-4H-1,2,4-triazol-3-yl)-1H-benzo[d]imidazole] had a pIC50 of 6.07 and a pKi of 6.64.

In turn, `COc1ccc(Cn2cnnc2-c2ccc3[nH]cnc3c2)cc1` [Example 8, 5-(4-(4-Methoxybenzyl)-4H-1,2,4-triazol-3-yl)-1H-benzo[d]imidazole] showed a pIC50 of 6.19 and a pKi of 6.96.

As to `c1ccc(Oc2ccc(Cn3cnnc3-c3ccc4[nH]cnc4c3)cc2)cc1` [Example 10, 5-(4-(4-phenoxybenzyl)-4H-1,2,4-triazol-3-yl)-1H-benzo[d]imidazole], the pIC50 is 6.32 and the pKi was 7.10.

`COc1ccc(OC)c(CCc2nnc(-c3ccc4[nH]cnc4c3)s2)c1` [Example 62, 5-(5-(2,5-Dimethoxyphenethyl)-1,3,4-thiadiazol-2-yl)-1H-benzo[d]imidazole]: the pIC50 is 6.32 and the pKi is 7.10.

`Fc1cccc(CCc2nnc(-c3ccc4[nH]cnc4c3)s2)c1` [Example 59, 5-(5-(3-fluorophenethyl)-1,3,4-thiadiazol-2-yl)-1H-benzo[d]imidazole]: the pIC50 was 6.25 and the pKi was 6.92.

With `Fc1ccc(CCc2nnc(-c3ccc4[nH]cnc4c3)s2)cc1F` [Example 58, 5-(5-(3,4-Difluorophenethyl)-1,3,4-thiadiazol-2-yl)-1H-benzo[d]imidazole], the pIC50 is 6.14 and the pKi was 6.85.

The compound `CSc1ccc(CCc2nnc(-c3ccc4[nH]cnc4c3)s2)cc1` [Example 50, 5-(5-(4-(Methylthio)phenethyl)-1,3,4-thiadiazol-2-yl)-1H-benzo[d]imidazole] showed a pIC50 of 6.12 and a pKi of 7.10.

As to `COc1ccccc1CCc1nnc(-c2ccc3[nH]cnc3c2)s1` [Example 61, 5-(5-(2-Methoxyphenethyl)-1,3,4-thiadiazol-2-yl)-1H-benzo[d]imidazole], the pIC50 was 6.12 and the pKi was 6.77.

In turn, `COc1cccc(CCc2nnc(-c3ccc4[nH]cnc4c3)s2)c1` [Example 60, 5-(5-(3-Methoxyphenethyl)-1,3,4-thiadiazol-2-yl)-1H-benzo[d]imidazole] showed a pIC50 of 6.35 and a pKi of 7.40.

As for `COc1ccc(CCc2nnc(-c3ccc4[nH]cnc4c3)s2)cc1Cl` [Example 52, 5-(5-(3-Chloro-4-methoxyphenethyl)-1,3,4-thiadiazol-2-yl)-1H-benzo[d]imidazole], the pIC50 is 6.17 and the pKi was 7.30.

As to `Clc1ccccc1Cn1cnnc1-c1ccc2[nH]cnc2c1` [Example 9, 5-(4-(2-Chlorobenzyl)-4H-1,2,4-triazol-3-yl)-1H-benzo[d]imidazole], the negative-log IC50 (pIC50) is 6.12 and the pKi is 6.70.

Take `c1ccc(SCc2nnc(-c3ccc4[nH]cnc4c3)s2)cc1` [Example 65, 5-(5-((Phenylthio)methyl)-1,3,4-thiadiazol-2-yl)-1H-benzo[d]imidazole]: the pIC50 is 6.28 and the pKi was 6.92.

Values taken from patent publication US9181233B2, “Inhibitors of glutaminyl cyclase” (PROBIODRUG AG, priority 2010, dated 2015).
